# Measurements: patent US20130303507A1 (Novartis AG, priority 2011, published 2013)
# Several values for one entry are separate records, joined by “and”; a condition that tells them apart may be missing. Equal entries are not always repeated.
# What was measured:
# Cdk9/cyclinT1 [1] = molecular target: T1, Cdk9/cyclinT1 (Homo sapiens, UniProt P50750); assay: Cdk9/cyclinT1 Alpha Screen protocol; format: biochemical; set-up: Full length wild type Cdk9/cyclin T1 is purchased from Invitrogen; purchased Invitrogen PV4131; conditions: individual determinations, read-out: CDK9_cyclinT1_AS2_IC50
# Procedure: Cdk9/cyclinT1 Alpha Screen Protocol
# Full length wild type Cdk9/cyclin T1 is purchased from Invitrogen, cat#PV4131. […] The cdk7tide peptide substrate, biotin-[…] -OH, is a custom synthesis purchased from the Tufts University Core Facility. The final concentration of cdk7tide peptide substrate is 200 nM. […] Phospho-Rpb1 CTD (ser2/5) substrate antibody is purchased from Cell Signaling Technology. The final concentration of antibody is 0.67 ug/ml. The Alpha Screen Protein A detection kit containing donor and acceptor beads is purchased from PerkinElmer Life Sciences. The final concentration of both donor and acceptor beads is 15 ug/ml. Alpha Screen is used for detection. […] The biotinylated-cdk7tide peptide substrate is bound to the streptavidin coated donor bead. The antibody is bound to the protein A coated acceptor bead. The antibody will bind to the phosphorylated form of the biotinylated-cdk7tide peptide substrate, bringing the donor and acceptor beads into close proximity. Laser irradiation of the donor bead at 680 nm generates a flow of short-lived singlet oxygen molecules. When the donor and acceptor beads are in close proximity, the reactive oxygen generated by the irradiation of the donor beads initiates a luminescence/fluorescence cascade in the acceptor beads. This process leads to a highly amplified signal with output in the 530-620 nm range. Assays are carried out in 50 mM Hepes, pH=7.5, 10 mM MgCl2, 0.1% Bovine Serum Albumin, 0.01% Tween-20, 1 mM Dithiothreitol, 2.5% Dimethyl Sulfoxide. Stop and detection steps are combined using 50 mM Hepes, pH=7.5, 18 mM EDTA, 0.1% Bovine Serum Albumin, 0.01% Tween-20.
# Cdk9/cyclinT1 [2] = molecular target: T1, Cdk9/cyclinT1; assay: Cdk9/cyclinT1 IMAP protocol (fluorescence polarization); conditions: IC-50, CDK9; lower limit of assay 0.0005 micromolar
# T1 sequence (P50750 whole entry): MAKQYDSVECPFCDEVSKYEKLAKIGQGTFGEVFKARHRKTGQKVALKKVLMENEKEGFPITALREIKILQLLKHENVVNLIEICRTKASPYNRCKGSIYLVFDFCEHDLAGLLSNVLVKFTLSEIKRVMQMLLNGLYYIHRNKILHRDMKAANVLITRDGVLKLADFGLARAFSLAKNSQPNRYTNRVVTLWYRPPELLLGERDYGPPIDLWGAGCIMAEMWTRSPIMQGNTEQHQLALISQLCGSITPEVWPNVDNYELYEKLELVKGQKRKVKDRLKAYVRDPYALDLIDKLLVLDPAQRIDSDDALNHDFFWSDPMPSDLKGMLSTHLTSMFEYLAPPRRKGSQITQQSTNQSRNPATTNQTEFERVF
# T1 sequence (O60563 whole entry partner): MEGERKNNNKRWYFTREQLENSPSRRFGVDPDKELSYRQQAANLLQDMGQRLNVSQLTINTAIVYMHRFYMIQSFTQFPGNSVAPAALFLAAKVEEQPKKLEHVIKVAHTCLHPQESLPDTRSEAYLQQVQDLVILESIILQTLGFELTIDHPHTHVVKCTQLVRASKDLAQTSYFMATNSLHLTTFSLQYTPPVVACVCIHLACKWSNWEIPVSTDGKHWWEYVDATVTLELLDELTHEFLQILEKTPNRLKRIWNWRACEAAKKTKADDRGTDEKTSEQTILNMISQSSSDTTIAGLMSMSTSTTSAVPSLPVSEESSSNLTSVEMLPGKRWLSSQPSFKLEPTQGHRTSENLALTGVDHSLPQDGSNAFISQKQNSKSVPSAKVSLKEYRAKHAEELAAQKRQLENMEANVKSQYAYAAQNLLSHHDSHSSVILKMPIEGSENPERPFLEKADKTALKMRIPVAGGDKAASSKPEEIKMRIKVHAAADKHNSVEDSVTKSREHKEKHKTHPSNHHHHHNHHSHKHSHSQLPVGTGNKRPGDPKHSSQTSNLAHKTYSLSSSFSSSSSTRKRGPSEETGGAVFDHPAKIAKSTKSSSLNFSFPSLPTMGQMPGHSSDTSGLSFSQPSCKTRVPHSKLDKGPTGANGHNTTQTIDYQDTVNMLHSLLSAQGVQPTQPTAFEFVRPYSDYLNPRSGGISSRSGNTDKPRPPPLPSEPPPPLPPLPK
smiles,measurement,setting,value
CC(C)(O)CN[C@H]1CC[C@H](Nc2cc(-c3cncc(OCC4(C#N)CCOCC4)n3)c(Cl)cn2)CC1 [Compound 524],IC50,Cdk9/cyclinT1 [1]; neutral species,0.85 nM
N#CC1(CNc2cccc(-c3cc(N[C@H]4CC[C@@H](N5CCn6c(nnc6C(F)(F)F)C5)CC4)ncc3Cl)n2)CCOCC1 [Compound 530],IC50,Cdk9/cyclinT1 [1]; neutral species,36.9 nM
C[C@H](N[C@H]1CC[C@H](Nc2cc(-c3cccc(NCC4(C#N)CCOCC4)n3)c(Cl)cn2)CC1)[C@@H](C)O [Compound 541],IC50,Cdk9/cyclinT1 [1]; TFA salt,0.303 nM
C[C@](O)(CN[C@H]1CC[C@H](Nc2cc(-c3cccc(NCC4(C#N)CCOCC4)n3)c(Cl)cn2)CC1)C(F)(F)F [Compound 578],IC50,Cdk9/cyclinT1 [1]; TFA salt,0.497 nM and 0.311 nM
C[C@H](CO)N[C@H]1CC[C@H](Nc2cc(-c3cncc(OCC4(C#N)CCOCC4)n3)c(F)cn2)CC1 [Compound 592],IC50,Cdk9/cyclinT1 [1]; neutral species,< 1 nM
COCCN[C@H]1CC[C@H](Nc2cc(-c3ccc(F)c(NCC4(C)CCOCC4)n3)c(Cl)cn2)CC1 [Compound 565],IC50,Cdk9/cyclinT1 [1]; TFA salt,0.433 nM and 0.226 nM
same,IC50,Cdk9/cyclinT1 [1]; neutral species,0.334 nM and 0.311 nM
COC[C@@H](C)N[C@H]1CC[C@H](Nc2cc(-c3cncc(OCC4(C#N)CCOCC4)n3)c(F)cn2)CC1 [Compound 553],IC50,Cdk9/cyclinT1 [1]; TFA salt,0.718 nM and 0.262 nM and 0.579 nM
same,IC50,Cdk9/cyclinT1 [1]; neutral species,0.654 nM
[2H][C@@](C)(COC)N[C@H]1CC[C@H](Nc2cc(-c3cccc(NCC4(C#N)CCOCC4)n3)c(Cl)cn2)CC1 [Compound 596],IC50,Cdk9/cyclinT1 [1]; neutral species,< 1 nM
COC[C@@H](C)N(O)[C@H]1CC[C@H](Nc2cc(-c3cncc(OCC4(C#N)CCOCC4)n3)c(Cl)cn2)CC1 [Compound 581],IC50,Cdk9/cyclinT1 [1]; neutral species,1 nM
COC[C@H](C)NC[C@H]1CC[C@H](Nc2cc(-c3cccc(NCC4(C#N)CCOCC4)n3)c(Cl)cn2)CC1 [Compound 533],IC50,Cdk9/cyclinT1 [1]; TFA salt,0.867 nM
COCCN[C@H]1CC[C@H](Nc2cc(-c3cncc(OCC4(C#N)CCOCC4)n3)c(F)cn2)CC1 [Compound 559],IC50,Cdk9/cyclinT1 [1]; TFA salt,0.205 nM
same,IC50,Cdk9/cyclinT1 [1]; neutral species,0.512 nM
COC[C@H](C)N[C@H]1CC[C@H](Nc2cc(-c3cccc(NCC4(C#N)CC4)n3)c(F)cn2)CC1 [Compound 566],IC50,Cdk9/cyclinT1 [1]; TFA salt,0.787 nM and 0.846 nM
N#CC1(CNc2cccc(-c3cc(N[C@H]4CC[C@H](NC[C@H](O)CF)CC4)ncc3Cl)n2)CCOCC1 [Compound 542],IC50,Cdk9/cyclinT1 [1]; TFA salt,0.168 nM
[2H]C([2H])([2H])OCC(C)N[C@H]1CC[C@H](Nc2cc(-c3cncc(OCC4(C#N)CCOCC4)n3)c(Cl)cn2)CC1 (stereo partly shown) [Compound 595],IC50,Cdk9/cyclinT1 [1]; neutral species,< 1 nM
C[C@H](CO)N[C@H]1CC[C@@H](Nc2cc(-c3cncc(OCC4(C#N)CCOCC4)n3)c(Cl)cn2)CC1 [Compound 591],IC50,Cdk9/cyclinT1 [1]; neutral species,< 1 nM
COCCNC[C@H]1CC[C@H](Nc2cc(-c3cccc(NCC4(C#N)CCOCC4)n3)c(Cl)cn2)CC1 [Compound 540],IC50,Cdk9/cyclinT1 [1]; neutral species,0.596 nM and 0.536 nM
N#CC1(CNc2cccc(-c3cc(N[C@H]4CC[C@H](NCCO)CC4)ncc3Cl)n2)CCOCC1 [Compound 572],IC50,Cdk9/cyclinT1 [1]; neutral species,0.301 nM
N#CC1(CNc2cccc(-c3cc(N[C@H]4CC[C@H](N5CCn6c(nnc6C(F)(F)F)C5)CC4)ncc3Cl)n2)CCOCC1 [Compound 528],IC50,Cdk9/cyclinT1 [1]; neutral species,7.73 nM
COCC(C)N[C@H]1CC[C@@H](Nc2cc(-c3cccc(NCC4(C#N)CCOCC4)n3)c(Cl)cn2)CC1 (stereo partly shown) [Compound 603],IC50,Cdk9/cyclinT1 [1]; neutral species,5.6 nM
COC[C@@H](C)N[C@H]1CC[C@H](Nc2cc(-c3cncc(OCC4(C#N)CC4)n3)c(F)cn2)CC1 [Compound 557],IC50,Cdk9/cyclinT1 [1]; neutral species,0.378 nM
C[C@H](O)CN[C@H]1CC[C@H](Nc2cc(-c3cccc(NCC4(C#N)CCOCC4)n3)c(Cl)cn2)CC1 [Compound 554],IC50,Cdk9/cyclinT1 [1]; neutral species,0.395 nM
COCCN[C@H]1CC[C@H](Nc2cc(-c3cncc(OCC4(C#N)CC4)n3)c(F)cn2)CC1 [Compound 556],IC50,Cdk9/cyclinT1 [1]; neutral species,0.628 nM
COC[C@@H](C)N[C@H]1CC[C@H](Nc2cc(-c3cnc(Cl)c(NCC4(C#N)CCOCC4)n3)c(Cl)cn2)CC1 [Compound 512],IC50,Cdk9/cyclinT1 [1]; neutral species,254 nM
"CC(C)(CO)N[C@H]1CC[C@H](Nc2cc(-c3cccc(NCC4(C#N)CCOCC4)n3)c(Cl)cn2)CC1 [Compound 453, 4-(((5′-chloro-2′-((trans-4-((1-hydroxy-2-methylpropan-2-yl)amino)cyclohexyl)amino)-[2,4′-bipyridin]-6-yl)amino)methyl)tetrahydro-2H-pyran-4-carbonitrile]",IC50,Cdk9/cyclinT1 [2],< 0.5 nM
"N#CC1(CNc2cccc(-c3cc(N[C@H]4CC[C@H](NCC5CCCO5)CC4)ncc3Cl)n2)CCOCC1 (stereo partly drawn) [Compound 468, 4-(((5′-chloro-2′-((trans-4-(((tetrahydrofuran-2-yl)methyl)amino)cyclohexyl)amino)-[2,4′-bipyridin]-6-yl)amino)methyl)tetrahydro-2H-pyran-4-carbonitrile]",IC50,Cdk9/cyclinT1 [2],< 0.5 nM
"CC1(C)CN([C@H]2CC[C@H](Nc3cc(-c4cccc(NCC5(C#N)CCOCC5)n4)c(Cl)cn3)CC2)CCO1 [Compound 416, 4-(((5′-chloro-2′-((trans-4-(2,2-dimethylmorpholino)cyclohexyl)amino)-[2,4′-bipyridin]-6-yl)amino)methyl)tetrahydro-2H-pyran-4-carbonitrile]",IC50,Cdk9/cyclinT1 [2],21 nM
"N#CC1(CNc2cccc(-c3cc(N[C@@H]4CCCc5ccccc54)ncc3Cl)n2)CCOCC1 [Compound 500, (R)-4-(((5′-chloro-2′-((1,2,3,4-tetrahydronaphthalen-1-yl)amino)-[2,4′-bipyridin]-6-yl)amino)methyl)tetrahydro-2H-pyran-4-carbonitrile]",IC50,Cdk9/cyclinT1 [2],20 nM
"COC[C@H](C)N[C@H]1CC[C@H](Nc2cc(-c3ccc(F)c(NC[C@@H]4CCOC(C)(C)C4)n3)c(Cl)cn2)CC1 [Compound 462, 5′-chloro-N6-(((R)-2,2-dimethyltetrahydro-2H-pyran-4-yl)methyl)-5-fluoro-N2′-(trans-4-(((S)-1-methoxypropan-2-yl)amino)cyclohexyl)-[2,4′-bipyridine]-2′,6-diamine]",IC50,Cdk9/cyclinT1 [2],1.2 nM
"CS(=O)(=O)CCN[C@H]1CC[C@H](Nc2cc(-c3cccc(NCC4(C#N)CCOCC4)n3)c(Cl)cn2)CC1 [Compound 422, 4-(((5′-chloro-2′-((trans-4-((2-(methylsulfonyl)ethyl)amino)cyclohexyl)amino)-[2,4′-bipyridin]-6-yl)amino)methyl)tetrahydro-2H-pyran-4-carbonitrile]",IC50,Cdk9/cyclinT1 [2],< 0.5 nM
"N#CC1(CNc2cccc(-c3cc(N[C@H]4CCCc5ccccc54)ncc3Cl)n2)CCOCC1 [Compound 501, (S)-4-(((5′-chloro-2′-((1,2,3,4-tetrahydronaphthalen-1-yl)amino)-[2,4′-bipyridin]-6-yl)amino)methyl)tetrahydro-2H-pyran-4-carbonitrile]",IC50,Cdk9/cyclinT1 [2],480 nM
"N#CC1(CNc2cccc(-c3cc(N[C@H]4CC[C@H](NC[C@@H]5CCCO5)CC4)ncc3Cl)n2)CCOCC1 [Compound 472, 4-(((5′-chloro-2′-((trans-4-((((S)-tetrahydrofuran-2-yl)methyl)amino)cyclohexyl)amino)-[2,4′-bipyridin]-6-yl)amino)methyl)tetrahydro-2H-pyran-4-carbonitrile]",IC50,Cdk9/cyclinT1 [2],< 0.5 nM
"N#CC1(CNc2cccc(-c3cc(N[C@@H]4CC[C@@H](NCC5CCCO5)C4)ncc3Cl)n2)CCOCC1 (stereo partly drawn) [Compound 410, 4-(((5′-chloro-2′-(((1R,3R)-3-(((tetrahydrofuran-2-yl)methyl)amino)cyclopentyl)amino)-[2,4′-bypyridin]-6-yl)amino)methyl)tetrahydro-2H-pyran-4-carbonitrile]",IC50,Cdk9/cyclinT1 [2],< 0.5 nM
"COC[C@@H](C)N[C@H]1CC[C@H](Nc2cc(-c3cccc(NCC4(C#N)CCOCC4)n3)c(F)cn2)CC1 [Compound 471, 4-(((5′-fluoro-2′-((trans-4-(((R)-1-methoxypropan-2-yl)amino)cyclohexyl)amino)-[2,4′-bipyridin]-6-yl)amino)methyl)tetrahydro-2H-pyran-4-carbonitrile]",IC50,Cdk9/cyclinT1 [2],< 0.5 nM
"COCCN(CCOC)[C@H]1CC[C@H](Nc2cc(-c3cccc(NCC4(C#N)CCOCC4)n3)c(Cl)cn2)CC1 [Compound 446, 4-(((2′-((trans-4-(bis(2-methoxyethyl)amino)cyclohexyl)amino)-5′-chloro-[2,4′-bipyridin]-6-yl)amino)methyl)tetrahydro-2H-pyran-4-carbonitrile]",IC50,Cdk9/cyclinT1 [2],< 0.5 nM
"CC(C)(NC[C@H]1CC[C@H](Nc2cc(-c3cccc(NCC4(C#N)CCOCC4)n3)c(Cl)cn2)CC1)C(=O)O [Compound 429, 2-(((trans-4-((5′-chloro-6-(((4-cyanotetrahydro-2H-pyran-4-yl)methyl)amino)-[2,4′-bipyridin]-2′-yl)amino)cyclohexyl)methyl)amino)-2-methylpropanoic acid]",IC50,Cdk9/cyclinT1 [2],1.3 nM
"COC[C@H](C)N[C@H]1CC[C@H](Nc2cc(-c3cccc(NCC4(C#N)CCOCC4)n3)c(F)cn2)CC1 [Compound 489, 4-(((5′-fluoro-2′-((trans-4-(((S)-1-methoxypropan-2-yl)amino)cyclohexyl)amino)-[2,4′-bipyridin]-6-yl)amino)methyl)tetrahydro-2H-pyran-4-carbonitrile]",IC50,Cdk9/cyclinT1 [2],≤ 0.5 nM
"N#CC1(CNc2cccc(-c3cc(NC4CCC(N)CC4)ncc3Cl)n2)CC1 (stereo not shown) [Compound 413, 1-(((2′-((4-aminocyclohexyl)amino)-5′-chloro-[2,4′-bipyridin]-6-yl)amino)methyl)cyclopropane-carbonitrile]",IC50,Cdk9/cyclinT1 [2],< 0.5 nM
